These results are taken from publication PMC7717565, “Structure of the Lifeact–F-actin complex” (PLoS Biology, 2020).

Assay [1] relates to F-actin-rich patch in yeast cells. It counts as cell-based, Saccharomyces cerevisiae. The conditions noted are these: Fig 3E.
Assay [2] shares this test system. It counts as cell-based, Saccharomyces cerevisiae. The conditions noted are these: Fig 3D.
In assay [3] the test system is HEK 293T cells intoxicated with PTC3. Nature of the assay: Intoxication competition assay with PTC3 in HEK 293T cells (cell area). It is filed as cell-based, human. The conditions noted are these: 300 pM PTC3, 5 h, mCherry fusion expressed.
Assay [4] has as its target F-actin (Oryctolagus cuniculus, UniProt P68135). Nature of the assay: Cosedimentation of Lifeact–mCherry with F-actin. It is filed as binding, Rabbit (skeletal muscle α-actin). More on the design: Bmax Value: unit not given here.
The test system of assay [5] is F-actin in yeast cells, WT actin. It counts as cell-based, Saccharomyces cerevisiae. The conditions noted are these: for weighted colocalization coefficient of phalloidin with Lifeact–mCherry: native ABP140 promoter, fixed cells, ActinGreen 488, Fig 2B, mean of 15 cells from 2 independent experiments.
Assay [6] deals with human tropomyosin alpha-1 binding to F-actin. The assay can be described thus: Competition cosedimentation of F-actin with tropomyosin. The conditions noted are these: Lifeact 100 uM, F-actin 3 μM, tropomyosin 3 μM.
Protocol: (§1) An aliquot of freshly thawed G-actin was centrifuged at 150,000 g using a TLA-55 rotor for 30 minutes at 4°C to remove possible aggregates. Then, actin was polymerized by incubation in F-buffer (120 mM KCl, 20 mM Tris pH 8, 2 mM MgCl2, 1 mM DTT, and 1 mM ATP) for 2 hours at room temperature or overnight at 4°C. For the cosedimentation experiments with myosin and tropomyosin, a 2-fold molar excess of phalloidin was added after the polymerization. Then, the actin filaments were pelleted using a TLA-55 rotor at 150,000 g for 30 minutes and resuspended in the following buffers: F-buffer was used for cosedimentations with tropomyosin or Lifeact–mCherry fusion proteins; 20 mM HEPES pH 6.5, 50 mM KCl, and 2 mM MgCl2 was used for cosedimentations with cofilin; and 120 mM KCl, 20 mM Tris pH 8, 2 mM MgCl2, and 1 mM DTT was used for cosedimentations with myosin.
(§2) For the competition assays, Lifeact peptide was added to the mixture at the specified concentrations. […] The Kd values were calculated as previously described using GraphPad Prism software (GraphPad Software, USA) [34].
(§3) Representative gels are shown. […] The error bars correspond to standard deviations of 3 independent experiments.
For assay [7], the system named is motor domain of human NM2C binding to F-actin. The assay can be described thus: Competition cosedimentation of F-actin with NM2C motor domain. The conditions noted are these: for fraction of myosin cosedimented with F-actin: Lifeact 100 uM, F-actin 0.2 μM, NM2C 0.2 μM, pH 8.
Protocol: The motor domain of nonmuscular myosin-2C (MYH14, isoform 2 from Homo sapiens) consisting of amino acids 1–799 was purified as described previously [32]
Then, actin was polymerized by incubation in F-buffer (120 mM KCl, 20 mM Tris pH 8, 2 mM MgCl2, 1 mM DTT, and 1 mM ATP) for 2 hours at room temperature or overnight at 4°C. For the cosedimentation experiments with myosin and tropomyosin, a 2-fold molar excess of phalloidin was added after the polymerization. Then, the actin filaments were pelleted using a TLA-55 rotor at 150,000 g for 30 minutes and resuspended in the following buffers: F-buffer was used for cosedimentations with tropomyosin or Lifeact–mCherry fusion proteins; 20 mM HEPES pH 6.5, 50 mM KCl, and 2 mM MgCl2 was used for cosedimentations with cofilin; and 120 mM KCl, 20 mM Tris pH 8, 2 mM MgCl2, and 1 mM DTT was used for cosedimentations with myosin.
as §2
The error bars correspond to standard deviations of 3 independent experiments.
For assay [8], the system named is ExoY-MBP binding to F-actin. The assay can be described thus: Competition cosedimentation of F-actin with ExoY-MBP. More on the design: species or system Pseudomonas aeruginosa ExoY; rabbit actin. The conditions noted are these: for fraction of ExoY cosedimented with F-actin: Lifeact 300 uM, F-actin 1 μM, ExoY-MBP 1 μM.
Assay [9] concerns human cofilin-1 binding to F-actin. The assay can be described thus: Competition cosedimentation of F-actin with cofilin-1. The conditions noted are these: Lifeact 100 uM, F-actin 4 μM, cofilin-1 4 μM, pH 6.5.
Protocol: as §1, §2, §3
The test system of the next assay is TccC3HVR. Nature of the assay: ADP-ribosylation of actin by TccC3HVR. It counts as biochemical, Photorhabdus luminescens. The conditions noted are these: for ADP-ribosylation level of actin (0 uM Lifeact = 1): Lifeact 100 uM, pH 8, 10 min 37°C.
The subject of assay [10] is F-actin. The conditions noted are these: ref [5],[6]; cited from earlier work. From the text:
Phalloidin and jasplakinolide are cyclic peptides derived from the death cap mushroom Amanita phalloides and marine sponge Jaspis johnstoni, respectively. They bind specifically to filamentous actin (F-actin), and when fused to a fluorescent probe, their derivatives allow visualization of the cell cytoskeleton by fluorescence microscopy. […] Recent electron cryo-microscopy (cryo-EM) studies from our group and others have uncovered h ...

Assay [11] concerns F-actin in yeast cells, actin D25Y/D222G. It counts as cell-based, Saccharomyces cerevisiae. The conditions noted are these: confocal microscopy, Fig 2C, endogenous actin replaced with D25Y variant.
The subject of assay [12] is F-actin in yeast cells, actin L349M. It is filed as cell-based, Saccharomyces cerevisiae. The conditions noted are these: confocal microscopy, Fig 2C, endogenous actin replaced with L349M variant.

Where no end group is shown, it is not given here.

As to “E17K: Lifeact E17K variant fused to mCherry (MGVADLIKKFESISKEK; also: fused to mCherry, His tag, end not given here)”, in assay [1], the “change of average patch to background signal ratio vs WT” value is reported as “insignificant increase”. Besides, in [2], the “change of average Lifeact–mCherry to phalloidin signal ratio vs WT” value is “insignificant increase”. For the same substance, the “effect on PTC3/TccC3HVR toxicity (cytoskeletal collapse, shrinkage)” value in [3] is listed as “significantly reduced”. Further, in the assay with F-actin [4] (3 μM Lifeact–mCherry, F-buffer pH 8, fit value, Std dev in next column), the “Bmax Value” amounted to 0.9222. For the same substance, in the assay with F-actin [4] (3 μM Lifeact–mCherry, F-buffer pH 8, full-precision fit value, Std dev in next column, unit as printed in Fig 3C), the Kd (in general, the constant that tells how readily two partners part at equilibrium) came out at 8.08 µM. The “staining of actin-rich structures compared with WT” value in assay [5] (confocal microscopy, Fig 2A) is “stained actin-rich structures in a similar way as WT Lifeact”. Moreover, the “weighted colocalization coefficient of phalloidin with Lifeact–mCherry” value in assay [5] was 0.8293.

“F10A Lifeact: Lifeact F10A mutant peptide, which only binds weakly to F-actin (MGVADLIKKAESISKEE)”: the “fraction of tropomyosin cosedimented with F-actin” value in assay [6] (1st repeat) is 0.4801; in [6] (2nd repeat), 0.5601; in assay [6] (3rd repeat), 0.4901; in assay [6] (mean of 3), 0.5101. For the same substance, the “effect on myosin binding to F-actin” value in assay [7] (Fig 4B, 4C) is recorded as “nor could F10A Lifeact compete with cofilin-1 or NM2C”. The “fraction of myosin cosedimented with F-actin” value stood at 0.8484 in assay [7] (1st repeat), 0.9522 in [7] (2nd repeat), 0.8926 in assay [7] (3rd repeat) and 0.8977 in assay [7] (mean of 3). In addition, the “binding to F-actin” value in the assay with F-actin [4] (in words, no value) was “only binds weakly to F-actin”. Further, the “effect on ExoY binding to F-actin” value in assay [8] (Fig 5A, 5B) was “did not impair formation of the ExoY-F-actin complex”. For the same substance, the “fraction of ExoY cosedimented with F-actin” value is listed as 0.8832 in assay [8] (1st repeat), 0.8982 in [8] (2nd repeat), 0.9357 in [8] (3rd repeat) and 0.9057 in assay [8] (mean of 3). Moreover, the “fraction of cofilin cosedimented with F-actin” value in assay [9] (1st repeat) worked out at 0.5246; in assay [9] (2nd repeat), 0.4576; in assay [9] (3rd repeat), 0.5496; in [9] (mean of 3) it was 0.5106. The “effect on the level of ADP-ribosylation” value in the assay with TccC3HVR (100 μM, control reaction) is “did not decrease the level of ADP-ribosylation at all”. Besides, the “ADP-ribosylation level of actin (0 uM Lifeact = 1)” value is reported as 1.142 in the assay on TccC3HVR (1st repeat), 1.587 in the assay on TccC3HVR (2nd repeat), 0.8227 in the assay on TccC3HVR (3rd repeat) and 1.184 in the assay with TccC3HVR (mean of 3).

In the case of Phalloidin, the “effect on F-actin” value in the assay with F-actin [10] was “strongly stabilize F-actin”.

“WT Lifeact–mCherry: wild-type Lifeact fused to mCherry [reference compound]”: the “actin-rich structures stained by Lifeact–mCherry” value in assay [11] and in [12] was “absent” each time. The “effect on PTC3/TccC3HVR toxicity (cytoskeletal collapse, shrinkage)” value in assay [3] was “significantly reduced”. Also, the “actin-rich structures (patches, cables, contractile rings) stained by Lifeact–mCherry” value in assay [5] (confocal microscopy, Fig 2A) is “typical actin-rich assemblies such as patches, cables, and contractile rings”. Moreover, the “weighted colocalization coefficient of phalloidin with Lifeact–mCherry” value in [5] is 0.9009. Further, the “factor of decrease of the level of ADP ribosylation” value in the assay with TccC3HVR (3 μM) turned out to be 2.

As to jasplakinolide, in the assay on F-actin [10], the “effect on F-actin” value was “strongly stabilize F-actin”.
